Measurements: patent US20220218680A1, “TREATMENTS OF HEREDITARY ANGIOEDEMA” (KALVISTA PHARMACEUTICALS LIMITED, priority 2019, published 2022)

Columns and labels:
[1] = background, literature and labels; cited from earlier work
[2] = Phase 1 single ascending dose study: plasma pharmacokinetics (LC MS/MS); format: in vivo, human; conditions: oral capsule, fasted, 5 mg to 600 mg
Method: (§1) This study was a randomized, double-blind, placebo-controlled single ascending dose (SAD) and crossover studies for food effect and capsule/tablet formulations.
Samples for pharmacokinetic (PK) and PD assessment were taken at repeated intervals over 48 hours.
Plasma samples used for PK assessment were analysed using a validated liquid chromatography tandem mass spectrometry (LC MS/MS) method.

[3] = tested on: HK cleavage by PKa in undiluted plasma; test: DXS-activated cleavage of HK in undiluted plasma (immunoblot); format: biochemical; conditions: 300 nM PKa inhibitor, 20 min incubation with DXS
Method: DXS-activated cleavage of HK in undiluted plasma was performed in the absence or presence of 300 nM PKa inhibitor and quantified by SDS-PAGE gel electrophoresis, using 7.5% Criterion TGX Precast gels (Biorad). Transfer was made onto Immunobilon-FL PVDF membrane. Image analysis was done using the LICOR imaging system. Mouse monoclonal anti-HK antibody (MAB15692, R&D systems) was used for traditional immunoblotting. Data presented as % of HK remaining after 20 min incubation with DXS compared to HK levels in unactivated plasma (Table 1).

[4] = tested on: HK cleavage by PKa in undiluted citrated human plasma; test: Protection of HK from PKa-mediated cleavage in DXS-stimulated HAE and control plasma (WES immunoassay); format: biochemical
Method: High molecular weight kininogen (HK) cleavage in undiluted citrated human plasma was induced by contact system activation with dextran sulfate (DXS, Sigma #31395-10G; 6.25 μg/ml) on wet ice. […] HAE plasma was obtained from HAE subjects (n=6) and C1-inhibitor deficiency was confirmed by western blotting. Protection of HK from PKa mediated cleavage in DXS-stimulated whole undiluted plasma was then determined by two methods; traditional western blotting and a semi-automated capillary-based immunoassay.
Preparation of samples: Combine one part 5× fluorescent master mix with four parts of the 1:200 plasma sample. Vortex to mix. Heat the samples+fluorescent master mix and the biotinylated ladder at 95° C. for 5 minutes, vortex, and load onto the WES plate. Monoclonal anti-human HK antibody was used for this chemiluminescence-based detection method using the Wes System (ProteinSimple).
Analysis: Collect the peak area measurement obtained in the Compass software (cbz file) for the full-length HK molecular weight of the respective time-point sample with DXS-induced activation. The peak area is defined as the area calculated for the spectral peak profile for HK. To measure the plasma kallikrein inhibition by the compound, the percent full-length HK detected was calculated.

[5] = tested on: Factor XII (FXII) cleavage / FXIIa generation; test: Phase 1 SAD: ex vivo DXS-stimulated generation of FXIIa, Wes immunoassay; format: in vivo, human; conditions: 600 mg oral capsules, up to 12 hrs post-dose
Excerpt: (§2) DXS-stimulated cleavage of plasma prekallikrein and Factor XII (FXII) were quantified by capillary-based immunoassay on the Wes System (ProteinSimple) analogously.

[6] = Plasma free fraction by Rapid Equilibrium Dialysis; format: in vitro ADME; conditions: 5 μM in neat human plasma, dialysed 5 hrs at 37° C.
Method: Plasma free fraction was determined using “Rapid Equilibrium Dialysis” system (Thermo Scientific), test compounds were prepared at 5 μM in neat human plasma and dialysed against phosphate buffer for 5 hrs at 37° C. Quantification of the compound partitioned in two chambers of the dialysis device was performed via LCMS/MS. Fraction of compound unbound to plasma proteins presented as % of total.

[7] = Phase 1 multiple dose study: safety, tolerability and ECG; format: in vivo, human; conditions: 3 x 600 mg every 8, 4 or 2 hours, total 1800 mg, healthy adults
Method: This is a phase 1, double-blind, placebo-controlled, multiple-dose, multiple-cohort study to evaluate safety and tolerability of the compound as well as of the ECG effects of the compound formulated as 100 mg Film Coated Tablets in healthy adult male and female subjects.
During the study, oral doses of 600 mg of the compound as Film Coated Tablets (six 100 mg tablets) or 6 matching placebo tablets will be administered once every 8 hours (Cohort 1) every 4 hours (Cohort 2), or every 2 hours (Cohort 3 and 4) to healthy adult male and female subjects up to a total dose of 1800 mg. In Cohorts 1, 2 and 3, 6 subjects will receive the compound as 100 mg Film Coated Tablets and 2 subjects will receive the placebo for a total of 8 subjects per cohort. In Cohort 4, 12 subjects will receive the compound as 100 mg Film Coated Tablets and 6 subjects will receive the placebo for a total of 18 subjects.
A Holter monitor will be attached to each subject in order to continuously record ECGs. The monitor will be attached 1 hour before the first dose and will remain attached until after the final blood sample collection. The electrodes for the Holter monitor will be checked by a member of the clinic staff at appropriate intervals to ensure they are attached.

[8] = Phase 2 study Part 1: pharmacokinetics in HAE patients; format: in vivo; conditions: human, plasma, 600 mg single oral dose, n = 27, preliminary, read-out: Cmax Mean (95% CI)
Method: In Part 1, subjects will receive a single oral dose of 600 mg of the compound to investigate the safety, PK and PD of the compound during the intercritical period between HAE attacks.
Part 1: Blood samples for PK and PD measurements will be collected at the following timepoints: Pre-dose (0 h), 15 min, 30 min, 45 min, 1 h, 1.5 h, 2 h, 3 h, and 4 h post-dose. Vital signs (systolic blood pressure [SBP], diastolic blood pressure [DBP], pulse rate [PR], respiratory rate [RR] and body temperature) will be measured at pre-dose (0 h), 1 h, and 4 h post-dose. Samples for post-treatment safety laboratory assessments will be taken with the 4 h PK/PD samples.
Non-compartmental PK parameters will include maximum concentration in plasma (Cmax), time to reach Cmax in plasma (tmax), and area under the curve from time 0 to last sample (AUC0-t). Compartmental PK modelling will describe the PK of the compound and generate underlying Cmax, tmax, AUC, apparent clearance (CL/F), apparent volume of distribution (Vd/F) and estimated terminal elimination half-life (t½).
The PK parameters of the compound will be determined from the individual concentration versus time data using Phoenix WinNonlin. In case of a deviation from the theoretical time, the actual time of blood sample will be used in the calculation of the derived PK parameters. […]

[9] = Phase 1 single ascending dose study: safety and tolerability; format: in vivo, human; conditions: phase I trial, healthy males, 5-600 mg oral
Excerpt: as §1

Plasma Kallikrein = target: T1, Plasma Kallikrein (Homo sapiens, UniProt P03952); test: Phase 1 SAD / food effect: ex vivo PKa catalytic activity in DXS-stimulated undiluted plasma
T1 construct: PD measurements were determined in dextran sulfate (DXS) stimulated undiluted plasma using a fluorogenic enzyme assay; from tissue; host or cells: undiluted plasma of healthy male volunteers after oral dosing, stimulated ex vivo with dextran sulfate
T1 sequence (P03952 391-638 limits assumed): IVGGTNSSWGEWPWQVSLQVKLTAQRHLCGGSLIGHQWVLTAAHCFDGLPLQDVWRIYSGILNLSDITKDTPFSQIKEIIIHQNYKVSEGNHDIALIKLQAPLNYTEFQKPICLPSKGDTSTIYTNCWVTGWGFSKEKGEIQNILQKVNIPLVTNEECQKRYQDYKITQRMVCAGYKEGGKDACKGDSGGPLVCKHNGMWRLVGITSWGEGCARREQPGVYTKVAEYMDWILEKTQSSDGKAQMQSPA
T1 sequence (P03952 20-390 partner limits assumed): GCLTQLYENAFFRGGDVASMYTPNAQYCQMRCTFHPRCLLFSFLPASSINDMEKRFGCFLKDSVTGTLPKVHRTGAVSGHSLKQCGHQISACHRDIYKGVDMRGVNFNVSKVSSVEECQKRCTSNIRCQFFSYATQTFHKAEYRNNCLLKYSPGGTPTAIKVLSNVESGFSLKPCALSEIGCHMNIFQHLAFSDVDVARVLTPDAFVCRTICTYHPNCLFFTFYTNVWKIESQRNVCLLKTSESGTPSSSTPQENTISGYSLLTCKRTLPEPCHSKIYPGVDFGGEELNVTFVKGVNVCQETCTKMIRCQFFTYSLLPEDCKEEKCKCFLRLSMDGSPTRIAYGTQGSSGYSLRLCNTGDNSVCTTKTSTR
Method: (§3) PD measurements were determined in dextran sulfate (DXS) stimulated undiluted plasma using a fluorogenic enzyme assay and capillary based HK cleavage immunoassay.
The time until appearance of detectable amidolytic enzyme activity in DXS-stimulated plasma (lag time) was calculated from the catalytic activity assay. The detection sensitivity of the rate of catalytic activity in plasma based on using a Spark (Tecan) fluorimeter is a fluorescence increase to reach 1ΔF unit/sec.

[10] = tested on: plasma prekallikrein (PPK) cleavage; test: Phase 1 SAD: ex vivo DXS-stimulated cleavage of plasma prekallikrein, Wes immunoassay; format: in vivo, human; conditions: 600 mg oral capsules, up to 12 hrs post-dose
Excerpt: as §2

HK cleavage = test: Phase 1 SAD: ex vivo DXS-stimulated HK cleavage, capillary-based immunoassay (Wes); format: in vivo, human
Method: as §3
DXS-stimulated cleavage of HK, in undiluted plasma was quantified by capillary-based immunoassay on the Wes System (ProteinSimple) using monoclonal anti-HK antibody and chemiluminescence-based detection. Plasma kallikrein mediated HK cleavage in undiluted citrated human plasma was induced by contact system activation with DXS (6.25 μg/ml) at 4° C. in selected samples from the SAD phase.

purified PKa = purified PKa (Homo sapiens, UniProt P03952); test: Rate of formation of the enzyme-inhibitor complex (Kon); format: biochemical
purified PKa, sequence (P03952 391-638 limits assumed): as the sequence (P03952 391-638 limits assumed) above
purified PKa, sequence (P03952 20-390 partner limits assumed): as the sequence (P03952 20-390 partner limits assumed) above
Method: The rate of formation of the enzyme-inhibitor complex (Kon) was determined using purified PKa rapidly mixed with a solution containing fluorogenic substrate and a concentration range of inhibitor. The time-dependent establishment of inhibition was then used to calculate the rate of formation of the enzyme-inhibitor complex for each concentration of inhibitor. The Kon was calculated by plotting the rate of inhibition versus the inhibitor concentration. Data in Table 1 are presented in μM^−1 sec^−1.

[11] = target: T2, plasma kallikrein in pre-activated undiluted human plasma (Homo sapiens, UniProt P03952); test: Inhibition of enzyme activity of pre-activated undiluted plasma (compound added after DXS); format: biochemical; conditions: added 3.5 minutes post DXS; compound 300, 1000, 3000 nM; C1-INH 3000 nM (FIG. 3B)
T2 construct: from tissue
T2 sequence (P03952 391-638 limits assumed): as the sequence (P03952 391-638 limits assumed) above
T2 sequence (P03952 20-390 partner limits assumed): as the sequence (P03952 20-390 partner limits assumed) above
Method: The ability of the compound to inhibit the enzyme activity of pre-activated plasma was assessed by addition of the compound after DXS stimulation. Aliquots of plasma (20 μL) were mixed with a 2.5 μL solution containing […] fluorogenic substrate (H-DPro-Phe-Arg-AFC) and a 2.5 μL solution of dextran sulphate (DXS; 100 μg/mL) which acted as an activator of the plasma kallikrein-kinin pathway. Enzyme activity was immediately measured by monitoring the accumulation of fluorescence liberated from the substrate by substrate cleavage over 16 minutes. At 3.5 minutes post DXS addition 5 μl of inhibitors or water control are were added into each well. The compound was tested at concentrations of 300, 1000 and 3000 nM. C1-INH at a concentration of 3000 nM and vehicle controls were also included.

[12] = target: T3, Human plasma kallikrein (Protogen) (Homo sapiens, UniProt P03952); test: Plasma kallikrein inhibitory activity in vitro (purified enzyme, fluorogenic substrate); format: biochemical; conditions: 25° C., substrate H-DPro-Phe-Arg-AFC
T3 construct: purchased Protogen
T3 sequence (P03952 391-638 limits assumed): as the sequence (P03952 391-638 limits assumed) above
T3 sequence (P03952 20-390 partner limits assumed): as the sequence (P03952 20-390 partner limits assumed) above
Method: Human plasma kallikrein (Protogen) was incubated at 25° C. with the fluorogenic substrate H-DPro-Phe-Arg-AFC and various concentrations of the test compound. Residual enzyme activity (initial rate of reaction) was determined by measuring the change in […] at 410 nm and the IC50 value for the test compound was determined.

[13] = target: PKa in DXS-activated plasma (Homo sapiens, UniProt P03952); test: Catalytic activity of PKa in dextran sulfate-activated plasma (inhibitor added before DXS); format: biochemical; conditions: read-out: IC50 plasma enzyme
PKa in DXS-activated plasma, sequence (P03952 391-638 limits assumed): as the sequence (P03952 391-638 limits assumed) above
PKa in DXS-activated plasma, sequence (P03952 20-390 partner limits assumed): as the sequence (P03952 20-390 partner limits assumed) above
Method: Catalytic activity of PKa in dextran sulfate-activated (DXS, Sigma; 10 μg/ml) plasma (1:4 diluted or undiluted, VisuCon-F control plasma, Affinity Biologicals Inc) was determined by the time-dependent hydrolysis of fluorogenic substrate.

## N#Cc1cccc([C@@H](NCC2CC2)c2ccc(F)c(NC(=O)c3cc(C(F)(F)F)nn3-c3cccc(CN)c3)c2)c1 [Berotralstat, reference compound]
[1]
  reported adverse reactions / risks: more gastrointestinal adverse effects

## COCc1nn(Cc2ccc(Cn3ccccc3=O)cc2)cc1C(=O)NCc1nccc(OC)c1F [compound of Formula A, N-[(3-fluoro-4-methoxypyridin-2-yl)methyl]-3-(methoxymethyl)-1-({4-[(2-oxopyridin-1-yl)methyl]phenyl}methyl)pyrazole-4-carboxamide]
[2]
  plasma exposure: rapid and dose-dependent plasma exposure
[3]
  HK protection (% of HK remaining vs unactivated plasma): 85%
[4]; HAE plasma stimulated with dextran sulfate
  protection against HK cleavage: dose dependent protection against HK cleavage
[4]; healthy control plasma stimulated with dextran sulfate
  protection against HK cleavage: dose dependent protection against HK cleavage
[5]
  effect on generation of FXIIa in DXS-activated plasma: reduces the generation of FXIIa
[6]
  fraction unbound at 5 h, 5 μM: 0.25
[7]
  effects on the studied ECG parameters: No clinically relevant effects
  serious adverse events: No serious adverse events
  severity of reported adverse events: mild
[8]
  Cmax: 5910 ng/mL
[9]
  serious adverse events: No serious adverse events
  tolerability: no tolerability signals
Plasma Kallikrein; 600 mg dose, tablet formulation
  lag time (time until appearance of catalytic activity during contact system activation): increases the time until appearance of catalytic activity
Plasma Kallikrein; 600 mg tablet, fed vs fasted
  food effect on the pharmacodynamic (PD) profile: no significant food-effect
[10]
  effect on PPK cleavage in DXS-activated plasma: reduces PPK cleavage
HK cleavage; 600 mg oral capsules, up to 12 hrs post-dose
  effect on HK cleavage in DXS-activated plasma: reduces HK cleavage
HK cleavage; single 600 mg dose
  duration of protection of HK from DXS-activated cleavage in undiluted plasma: at least 10 hr

## C1-INH: C1 inhibitor (Sigma Cat #E0518), used as a therapeutic benchmark for HAE [Compound C1-INH]
Purified PKa
  Kon: 40000 M⁻¹ s⁻¹
[11]
  inhibition of enzyme activity after activation of plasma: slower action
[12]
  IC50: 50 nM
[13]
  IC50: 1700 nM

## Ecallantide
[1]
  reported adverse reactions / risks: risk of anaphylactic reactions

B1: lanadelumab: recombinant fully human IgG1 kappa light chain monoclonal antibody, active substance of Takhzyro (antibody, chains of the INN, looked up, V domains shown)
VH: EVQLLESGGGLVQPGGSLRLSCAASGFTFSHYIMMWVRQAPGKGLEWVSGIYSSGGITVYADSVKGRFTISRDNSKNTLYLQMNSLRAEDTAVYYCAYRRIGVPRRDEFDIWGQGTMVTVSS
VL: DIQMTQSPSTLSASVGDRVTITCRASQSISSWLAWYQQKPGKAPKLLIYKASTLESGVPSRFSGSGSGTEFTLTISSLQPDDFATYYCQQYNTYWTFGQGTKVEIK
[1]
  reported adverse reactions / risks: hypersensitivity, injection site pain, injection site erythema, and injection site bruising
